# According to patent US8952024B2, “Herbicidal pyrimidone derivatives” (E I du Pont de Nemours and Company, priority 2009, dated 2015):
# How the values were obtained:
# Type in all cases: in vivo
# [1] = test system: blackgrass (Alopecurus myosuroides); test: Test B pre-/postemergence plant response
# In short: (§1)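 Visually scored on a 0 to 100 scale after 13 to 15 days in greenhouse versus controls. Treatments were preemergence on seeded loam/sand soil and postemergence on 1- to 4-leaf plants.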
# [2] = test system: ragweed (common ragweed, Ambrosia elatior); test: Test B pre-/postemergence plant response
# In short: as §1
# [3] = test system: soybean (Glycine max); test: Test B pre-/postemergence plant response
# In short: as §1
# [4] = test system: kochia (Kochia scoparia); test: Test B pre-/postemergence plant response; settings: Postemergence; for Plant response rating, Kochia: scale 0 (no effect) to 100 (complete control)
# In short: as §1
# [5] = test system: yellow nutsedge (Cyperus esculentus); test: Test B pre-/postemergence plant response
# In short: as §1
# [6] = test system: giant foxtail (Setaria faberii); test: Test B pre-/postemergence plant response
# In short: as §1
# [7] = test system: morningglory (Ipomoea coccinea); test: Test B pre-/postemergence plant response
# In short: as §1
# [8] = test system: wild oat (Avena fatua); test: Test B pre-/postemergence plant response
# In short: as §1
# [9] = test system: green foxtail (Setaria viridis); test: Test B pre-/postemergence plant response
# In short: as §1
# [10] = test system: wheat (Triticum aestivum); test: Test B pre-/postemergence plant response
# In short: as §1
# [11] = test system: cocklebur (Xanthium strumarium); test: Test B pre-/postemergence plant response; settings: Preemergence
# In short: as §1
# [12] = test system: velvetleaf (Abutilon theophrasti); test: Test B pre-/postemergence plant response
# In short: as §1
# [13] = test system: johnsongrass (Sorghum halepense); test: Test B pre-/postemergence plant response
# In short: as §1
# [14] = test system: downy bromegrass (Bromus tectorum); test: Test B pre-/postemergence plant response
# In short: as §1
# [15] = test system: bermudagrass (Cynodon dactylon); test: Test B pre-/postemergence plant response
# In short: as §1
# [16] = test system: windgrass (Apera spica-venti); test: Test B postemergence plant response; settings: Postemergence, scale 0 (no effect) to 100 (complete control)
# In short: (§2)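 Plants at the 1- to 4-leaf stage (2 to 18 cm tall), grown in pots of peat moss/vermiculite medium with wetting agent and starter nutrients, received postemergence applications of test chemicals. After 13 to 15 days in a greenhouse, injury was rated visually against untreated controls on a 0 (no effect) to 100 (complete control) scale.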
# [17] = test system: chickweed (Stellaria media); test: Test B postemergence plant response; settings: Postemergence
# In short: as §2
# [18] = test system: canarygrass (Phalaris minor); test: Test B postemergence plant response; settings: Postemergence
# In short: as §2
# [19] = 250 g ai/ha, Preemergence, 0 to 100 scale
# [20] = Postemergence, 31 g ai/ha, scale 0 to 100 (0 no effect, 100 complete control)
# [21] = Postemergence, 62 g ai/ha, scale 0 (no effect) to 100 (complete control), 13 to 15 days
# [22] = Postemergence, 125 g ai/ha, visual rating after 13 to 15 days, scale 0 (no effect) to 100 (complete control)
# [23] = Postemergence, 250 g ai/ha, scale 0 to 100
# [24] = Preemergence, 31 g ai/ha, scale 0 to 100 (0 no effect, 100 complete control)
# [25] = Preemergence, 62 g ai/ha, scale 0 to 100, 0 no effect, 100 complete control
# [26] = Preemergence, 125 g ai/ha, 0 to 100 scale
# [27] = 125 g ai/ha, visual rating after 13 to 15 days
# [28] = 31 g ai/ha, scale 0 to 100 (0 no effect, 100 complete control)
# [29] = 62 g ai/ha, scale 0 (no effect) to 100 (complete control), 13 to 15 days
# [30] = 125 g ai/ha, visual rating after 13 to 15 days, scale 0 (no effect) to 100 (complete control)
smiles,measurement,setting,value
O=C1CCCC(O)=C1C(=O)c1cnc(-c2ccccc2)n(-c2ccccc2Br)c1=O [Compound 37],"Plant response rating, Blackgrass",[1]; [19],10
same,"Plant response rating, Blackgrass",[1]; [20],0
same,"Plant response rating, Blackgrass",[1]; [21],0
same,"Plant response rating, Blackgrass",[1]; [22],5
same,Blackgrass plant response rating,[1]; [23],30
same,"Plant response rating, Blackgrass",[1]; [24],0
same,"Plant response rating, Blackgrass",[1]; [25],0
same,Blackgrass plant response rating,[1]; [26],5
same,"Plant response rating, Ragweed",[2]; [19],98
same,"Plant response rating, Ragweed",[2]; [21],80
same,"Plant response rating, Ragweed",[2]; [22],95
same,"Plant response rating, Ragweed",[2]; [24],0
same,Ragweed plant response rating,[2]; [26],65
same,"Plant response rating, Soybean",[3]; [19],35
same,"Plant response rating, Soybean",[3]; [21],80
same,"Plant response rating, Soybean",[3]; [22],95
same,"Plant response rating, Soybean",[3]; [24],0
same,Soybean plant response rating,[3]; [26],0
same,"Plant response rating, Kochia","[4]; 62 g ai/ha, 13 to 15 days",0
same,"Plant response rating, Kochia",[4]; [27],15
same,Kochia plant response rating,"[4]; 250 g ai/ha, scale 0 to 100",65
same,"Plant response rating, Nutsedge, Yellow",[5]; [19],90
same,"Plant response rating, Nutsedge, Yellow",[5]; [21],15
same,"Plant response rating, Nutsedge, Yellow",[5]; [22],25
same,"Plant response rating, Nutsedge, Yellow",[5]; [24],0
same,"Nutsedge, Yellow plant response rating",[5]; [26],20
same,"Plant response rating, Foxtail, Giant",[6]; [19],75
same,"Plant response rating, Foxtail, Giant",[6]; [20],70
same,"Plant response rating, Foxtail, Giant",[6]; [21],85
same,"Plant response rating, Foxtail, Giant",[6]; [22],95
same,"Foxtail, Giant plant response rating",[6]; [23],100
same,"Plant response rating, Foxtail, Giant",[6]; [24],0
same,"Plant response rating, Foxtail, Giant",[6]; [25],0
same,"Foxtail, Giant plant response rating",[6]; [26],0
same,"Plant response rating, Morningglory",[7]; [19],0
same,"Plant response rating, Morningglory",[7]; [21],70
same,"Plant response rating, Morningglory",[7]; [22],75
same,"Plant response rating, Morningglory",[7]; [24],0
same,"Plant response rating, Morningglory",[7]; [25],0
same,Morningglory plant response rating,[7]; [26],0
same,"Plant response rating, Oat, Wild",[8]; [19],10
same,"Plant response rating, Oat, Wild",[8]; [21],10
same,"Plant response rating, Oat, Wild",[8]; [22],40
same,"Plant response rating, Oat, Wild",[8]; [24],0
same,"Oat, Wild plant response rating",[8]; [26],0
same,"Plant response rating, Foxtail, Green",[9]; [19],90
same,"Plant response rating, Foxtail, Green",[9]; [20],60
same,"Plant response rating, Foxtail, Green",[9]; [21],65
same,"Plant response rating, Foxtail, Green",[9]; [22],85
same,"Foxtail, Green plant response rating",[9]; [23],95
same,"Plant response rating, Foxtail, Green",[9]; [24],0
same,"Plant response rating, Foxtail, Green",[9]; [25],0
same,"Foxtail, Green plant response rating",[9]; [26],0
same,"Plant response rating, Wheat",[10]; [19],0
same,"Plant response rating, Wheat",[10]; [21],0
same,"Plant response rating, Wheat",[10]; [22],0
same,"Plant response rating, Wheat",[10]; [24],0
same,Wheat plant response rating,[10]; [26],0
same,"Plant response rating, Cocklebur","[11]; 250 g ai/ha, 0 to 100 scale",45
same,"Plant response rating, Cocklebur",[11]; [28],0
same,Cocklebur plant response rating,"[11]; 125 g ai/ha, 0 to 100 scale",0
same,"Plant response rating, Velvetleaf",[12]; [19],98
same,"Plant response rating, Velvetleaf",[12]; [21],80
same,"Plant response rating, Velvetleaf",[12]; [22],95
same,"Plant response rating, Velvetleaf",[12]; [24],0
same,Velvetleaf plant response rating,[12]; [26],20
same,"Plant response rating, Johnsongrass",[13]; [19],90
same,"Plant response rating, Johnsongrass",[13]; [21],40
same,"Plant response rating, Johnsongrass",[13]; [22],60
same,Johnsongrass plant response rating,[13]; [23],85
same,"Plant response rating, Johnsongrass",[13]; [24],0
same,"Plant response rating, Johnsongrass",[13]; [25],0
same,Johnsongrass plant response rating,[13]; [26],45
same,"Plant response rating, Bromegrass, Downy",[14]; [19],0
same,"Plant response rating, Bromegrass, Downy",[14]; [20],0
same,"Plant response rating, Bromegrass, Downy",[14]; [21],10
same,"Plant response rating, Bromegrass, Downy",[14]; [22],15
same,"Bromegrass, Downy plant response rating",[14]; [23],45
same,"Plant response rating, Bromegrass, Downy",[14]; [24],0
same,"Plant response rating, Bromegrass, Downy",[14]; [25],0
same,"Bromegrass, Downy plant response rating",[14]; [26],0
same,"Plant response rating, Bermudagrass",[15]; [19],100
same,"Plant response rating, Bermudagrass",[15]; [20],85
same,"Plant response rating, Bermudagrass",[15]; [21],90
same,"Plant response rating, Bermudagrass",[15]; [22],98
same,Bermudagrass plant response rating,[15]; [23],100
same,"Plant response rating, Bermudagrass",[15]; [24],10
same,"Plant response rating, Bermudagrass",[15]; [25],80
same,Bermudagrass plant response rating,[15]; [26],98
same,"Plant response rating, Windgrass","[16]; 62 g ai/ha, 13 to 15 days",30
same,"Plant response rating, Windgrass",[16]; [27],50
same,"Plant response rating, Chickweed",[17]; [28],80
same,"Plant response rating, Chickweed",[17]; [29],80
same,"Plant response rating, Chickweed",[17]; [30],85
same,Chickweed plant response rating,"[17]; 250 g ai/ha, scale 0 to 100",100
same,"Plant response rating, Canarygrass",[18]; [28],0
same,"Plant response rating, Canarygrass",[18]; [29],5
same,"Plant response rating, Canarygrass",[18]; [30],10
same,Canarygrass plant response rating,"[18]; 250 g ai/ha, scale 0 to 100",30
